Results published in publication PMC10762078, “Role of UPF1-LIN28A interaction during early differentiation of pluripotent stem cells” (Nature Communications, 2024).
Ends that are not written are not given here.

Tested on: hPSCs
Assay: RT-qPCR of pluripotency and germ-layer markers during differentiation with CPP-peptides (Supplementary Fig. 7b-e)
Type: cell-based, human
Conditions: for GATA4 (RT-qPCR) / SOX17 (RT-qPCR): Fig. s7e
Protocol: For CPP-conjugated peptide delivery, HeLa, 293T, and PA-1 cells were incubated with CPP-conjugated peptides or CPP-FITC at 2 μM in DMEM with 10% FBS for 12 h a day before cell harvest. hPSCs were treated with CPP-conjugated peptides at 10 μM in mTeSR Plus Medium, and the peptide-containing medium was changed every day over 10 days. The ROCK inhibitor (Tocris Bioscience, Y-27632) treated-hPSCs were dissociated into single cells using Accutase (Merck, SCR005) and differentiated into ectoderm, mesoderm, and endoderm using the STEMdiff Trilineage Differentiation Kit ([…] Technologies, 05230) following the manufacturer’s protocol. Differentiated cells treated with CPP-conjugated peptides were analysed at 0, 3, and 5 days for ectoderm and endoderm, and at 0, 3, and 4 days for mesoderm. […]
cDNA was synthesised using RevertAid Reverse Transcriptase (Thermo Fisher Scientific, EP0441) with synthesised random hexamer (Macrogen) for total RNA or stem-loop primers for miRNA. For RT-qPCR reactions, the SensiFAST SYBR No-ROX kit (Meridian Bioscience) was used according to the manufacturer’s protocol. All data analysis and visualisation were conducted using R 3.6.1 [www.r-project.org] or GraphPad Prism 10. RT primers for miRNA and RT-qPCR primer sequences are provided in Supplementary Data 6. […]
FPKM of each gene was presented f r om RNA-seq analysis. b–e hPSCs wer e treated with the indicated peptide during each germ la ye r differentiation. […]
An unpaired Student’s t-test was used for a–e. Data are presented as mean values ± SEM. All statistical test us ed wer e two-s ided. T he m inim um number of independent biological replicate experim ents was a–f n = 3. T he experiments wer e conducted three tim es, each iteration producing consistent results.

[1] = Fig. s7d, day 3, mean of 3 replicates
[2] = Fig. s7d, day 4, mean of 3 replicates

KKKWCRKKKSSADEKRYRALKRTAERELLMNA [P8]
TBXT mRNA level (RT-qPCR) (Fig. s7d, Day 3, replicate 2): 4302.87
BMP2 mRNA level (RT-qPCR) (Fig. s7d, Day 3, replicate 3): 1.333
BMP4 mRNA level (RT-qPCR) (Fig. s7d, Day 3, replicate 3): 53.6277
CDH2 mRNA level (RT-qPCR) (Fig. s7d, Day 3, replicate 3): 17.5345
CXCR4 mRNA level (RT-qPCR) (Fig. s7d, Day 3, replicate 3): 641.469
SNAI1 mRNA level (RT-qPCR) (Fig. s7d, Day 3, replicate 3): 12.7742
TBXT mRNA level (RT-qPCR) (Fig. s7d, Day 3, replicate 3): 4804.52
BMP2 mRNA level (RT-qPCR) (Fig. s7d, Day 4, replicate 1): 0.2478
BMP4 mRNA level (RT-qPCR) (Fig. s7d, Day 4, replicate 1): 31.2396
CDH2 mRNA level (RT-qPCR) (Fig. s7d, Day 4, replicate 1): 14.5509
CXCR4 mRNA level (RT-qPCR) (Fig. s7d, Day 4, replicate 1): 668.803
SNAI1 mRNA level (RT-qPCR) (Fig. s7d, Day 4, replicate 1): 16.3401
TBXT mRNA level (RT-qPCR) (Fig. s7d, Day 4, replicate 1): 2083
BMP2 mRNA level (RT-qPCR) (Fig. s7d, Day 4, replicate 2): 0.261
BMP4 mRNA level (RT-qPCR) (Fig. s7d, Day 4, replicate 2): 27.7899
CDH2 mRNA level (RT-qPCR) (Fig. s7d, Day 4, replicate 2): 13.2223
CXCR4 mRNA level (RT-qPCR) (Fig. s7d, Day 4, replicate 2): 587.806
SNAI1 mRNA level (RT-qPCR) (Fig. s7d, Day 4, replicate 2): 17.9864
TBXT mRNA level (RT-qPCR) (Fig. s7d, Day 4, replicate 2): 2236.13
BMP2 mRNA level (RT-qPCR) (Fig. s7d, Day 4, replicate 3): 0.2852
BMP4 mRNA level (RT-qPCR) (Fig. s7d, Day 4, replicate 3): 35.8542
CDH2 mRNA level (RT-qPCR) (Fig. s7d, Day 4, replicate 3): 15.5934
CXCR4 mRNA level (RT-qPCR) (Fig. s7d, Day 4, replicate 3): 589.372
SNAI1 mRNA level (RT-qPCR) (Fig. s7d, Day 4, replicate 3): 18.1009
TBXT mRNA level (RT-qPCR) (Fig. s7d, Day 4, replicate 3): 2648.18
SNAI1 difference between means (P8 - P1) ± SEM (Fig. s7d, day 3, P8 vs. P1): -10.01 ± 2.987
SNAI1 difference between means, 95% confidence interval (Fig. s7d, day 3, P8 vs. P1): -18.30 to -1.717
TBXT difference between means (P8 - P1) ± SEM (Fig. s7d, day 3, P8 vs. P1): -3827 ± 1244
TBXT difference between means, 95% confidence interval (Fig. s7d, day 3, P8 vs. P1): -7280 to -372.8
SNAI1 mRNA level (RT-qPCR), mean [1]: 12.93
TBXT mRNA level (RT-qPCR), mean [1]: 4321
BMP4 difference between means (P8 - P1) ± SEM (Fig. s7d, day 4, P8 vs. P1): 18.59 ± 2.500
BMP4 difference between means, 95% confidence interval (Fig. s7d, day 4, P8 vs. P1): 11.65 to 25.53
CDH2 difference between means (P8 - P1) ± SEM (Fig. s7d, day 4, P8 vs. P1): -2.944 ± 0.7977
CDH2 difference between means, 95% confidence interval (Fig. s7d, day 4, P8 vs. P1): -5.158 to -0.7287
TBXT difference between means (P8 - P1) ± SEM (Fig. s7d, day 4, P8 vs. P1): -1631 ± 305.2
TBXT difference between means, 95% confidence interval (Fig. s7d, day 4, P8 vs. P1): -2478 to -783.3
BMP4 mRNA level (RT-qPCR), mean [2]: 31.63
CDH2 mRNA level (RT-qPCR), mean [2]: 14.46
TBXT mRNA level (RT-qPCR), mean [2]: 2322
GATA4 (RT-qPCR) (Day 0, replicate 1): 0.7242
GATA4 (RT-qPCR) (Day 0, replicate 2): 1.3517
GATA4 (RT-qPCR) (Day 0, replicate 3): 0.9241
GATA4 (RT-qPCR) (Day 3, replicate 1): 32.2
GATA4 (RT-qPCR) (Day 3, replicate 2): 35.8526
GATA4 (RT-qPCR) (Day 3, replicate 3): 22.1669
GATA4 (RT-qPCR) (Day 5, replicate 1): 75.9376
GATA4 (RT-qPCR) (Day 5, replicate 2): 69.9276
GATA4 (RT-qPCR) (Day 5, replicate 3): 152.842
SOX17 (RT-qPCR) (Day 0, replicate 1): 1.264
SOX17 (RT-qPCR) (Day 0, replicate 2): 0.8709
SOX17 (RT-qPCR) (Day 0, replicate 3): 0.8647
SOX17 (RT-qPCR) (Day 3, replicate 1): 2247.1
SOX17 (RT-qPCR) (Day 3, replicate 2): 1796.71
SOX17 (RT-qPCR) (Day 3, replicate 3): 1610.91
SOX17 (RT-qPCR) (Day 5, replicate 1): 1021.85
SOX17 (RT-qPCR) (Day 5, replicate 2): 1109.15
SOX17 (RT-qPCR) (Day 5, replicate 3): 1096.19
